These results are taken from PMC3202029 (Journal of ethnopharmacology, 2011).

For data set [1] the following is noted: ref Konishi et al. 2005; Bérangère et al., 2004; cited from earlier work.
Another data set deals with Caco-2 cell monolayers. Nature of the data set: Transepithelial transfer. Conditions: for compound found in cells: cell homogenate after 4 h, before or after deconjugation; for uptake (transport rate): 4 h. The data set is classed as in vitro ADME, human.
A short description of the next data set: Transepithelial transfer. It counts as in vitro ADME, human. As to conditions: human, Caco-2, pH 7.4.

`C[C@H]1[C@H](C)CC[C@]2(C(=O)O)CC[C@]3(C)C(=CC[C@@H]4[C@@]5(C)CC[C@H](O)C(C)(C)[C@@H]5CC[C@]43C)[C@H]12` [UA, Ursolic acid]: the “partition coefficient (Log P)” value in data set [1] is given as 6.4. For the same compound, the “detection of UA after apical application of P. vulgaris extracts” value with Caco-2 cell monolayers (apically-applied P. vulgaris extracts containing 1-10 μM RA) is reported as “not detected”. The “compound found in cells” value in the data set with Caco-2 cell monolayers is recorded as “neither RA nor UA was found in cells”. In addition, the “uptake (transport rate)” value amounted to 0.2 ± 0.04 μM/h/cm^2 in the data set with Caco-2 cell monolayers (highest tested concentration, 20 μM) and 0.03 ± 0.01 μM/h/cm^2 with Caco-2 cell monolayers (lowest tested concentration, 5 μM).

As to lucifer yellow [LY, reference compound], the “basolateral recovery of paracellular marker” value in the data set on Caco-2 cell monolayers (100 μM LY) was determined as 0.5 ± 0.1%. Further, in the data set with Caco-2 cell monolayers (apical to basolateral, HBSS pH 7.4, RA 10 μM, UA 5, 10 and 20 μM, LY 100 μM), the Papp before deconjugation stood at 0.3 ± 0.1 cm/s ×10^−6.

Turning to `O=C(/C=C/c1ccc(O)c(O)c1)O[C@H](Cc1ccc(O)c(O)c1)C(=O)O` [RA, Rosmarinic acid], the “partition coefficient (Log P)” value in data set [1] is recorded as 0.2. The “basolateral detection at 0.5 and 1 h” value with Caco-2 cell monolayers (before deconjugation, 10 μM RA) is listed as “not detected”. In addition, the “compound found in cells” value in the data set on Caco-2 cell monolayers is recorded as “neither RA nor UA was found in cells”. In addition, the recovery at 4 h, 10 μM in “Transepithelial transfer” came out at 86.7 ± 2.9%.
